Test results from patent publication US6133304A, “ACE inhibitor-MMP inhibitor combinations” (priority 2000, dated 2000).

How the values were obtained:
[1] = tested on: pigs subjected to rapid pacing; experiment: rapid-paced pig model of heart failure (Example 2); format: in vivo; conditions: for LV End-Systolic Pressure / Pulmonary Vascular Resistance / Systemic Vascular Resistance / Plasma Norepinephrine: Day 21 of pacing, 793 2 mg/kg/day PO, F […] BID PO; for LV End-Systolic Pressure / Pulmonary Vascular Resistance / Systemic Vascular Resistance: pacer off; for LV End-Systolic Pressure / Plasma Norepinephrine: spread printed in the next line; for Pulmonary Vascular Resistance / Systemic Vascular Resistance: spread printed in the next lines; for LV end-diastolic dimension (dilation), in words / LV wall stress, in words: echocardiography, 3-week pacing period
[2] = tested on: spontaneously hypertensive heart failure (SHHF) rats; experiment: 8-month progression study in SHHF rats (Example 1); format: in vivo, rat; conditions: for LVEDP (left ventricular end-diastolic pressure) / LVESP (left ventricular end-systolic pressure) / LVV-OP: SHHF rats, 8 months in diet; for LVEDP (left ventricular end-diastolic pressure) / LVESP (left ventricular end-systolic pressure): PD 166793 5 mg/kg/day, quinapril 10 mg/kg/day or both; for LVV-OP: left ventricular pressure volume relations, KCl arrested heart
Description: Five groups of rats (n=14 per group) were tested: 17-month-old normotensive Fischer control Rats (F-1 7); vehicle treated 17-month-old SHHF Rats (SHHF-17); PD 166793-0000 (Lot Y) SHHF Rats (SHHF-793); Quinapril (PD 109452-0002, Lot Y) SHHF Rats (SHHF-Q); PD 166793 +Quinapril SHHF Rats (SHHF-793Q). Naive Fischer rats were acclimatized 2 weeks prior to testing. All SHHF rats were maintained in-house, administered drug for 8 months, and then cardiovascular tests were performed and tissue samples taken. The primary endpoint for the study was the prevention of cardiac dilation as determined by left ventricular pressure volume relations in the excised KCI arrested heart.
Drug Administration: All SHHF rats were fed powdered rat chow for 1 week prior to drug administration, and daily food consumption was measured by weighing the foodcups. Drug was added to powdered rat chow so that rats consumed their daily dose of PD 166793 (5 mg/kg/day), quinapril (10 mg/kg/day), or both drugs in combination. Food consumption was monitored twice weekly.
Terminal Cardiovascular Test: Rats were anesthetized with isoflurane for terminal testing. Isoflurane was administered using a mask until the rats are anesthetized and a tracheotomy performed. The rats were respired using a ventilator (A.D.S. 1000, Engler Engineering Corp., Hialeah, Fla.). Cardiac function was assessed in closed-chest rats by measuring LV dP/dt, LV end-diastolic pressure (EDP), heart rate, and aortic blood pressure using a Millar pressure transducer inserted through the right carotid. Physiological data was recorded at 500 Hz, and a logging rate of 5 seconds was used to average data. […] Baseline measurements were made when the rats reached a stable plateau of anesthesia. Normotensive rats had their blood pressure increased by partial occlusion of the aorta so that cardiovascular function could be assessed at a pressure of 180 mmHg, the projected blood pressure of SHHF rats. Approximately 4 to 5 mL of blood were withdrawn in ice-cold syringes and then transferred to ice-cold EDTA tubes. Blood was centrifuged at 4500 RPM for 10 minutes so that plasma could be stored for drug measurements, and measuring collagen breakdown products. The heart was arrested with KCl and rapidly excised. A glass cannula was inserted through the aorta into the LV chamber, and secured into place by a ligature around the atrio-ventricular groove. Cardiac dilation was measured by generating left ventricular pressure volume (PV) curves. The PV curves was generated by evacuating the LV of saline and then filling the LV at a fixed rate using a programmable pump set at a 1 mL/min flow rate. The PV curves were recorded on a Po-Ne-Mah digital data acquisition system. A 2 to 3 mm cross-section of the heart was removed (at the level of the papillary muscles). The remainder of the heart was rapidly divided into RV and LV tissue that was frozen in liquid N2 for subsequent weighing and biochemical analysis. The cross-sections were fixed in buffered formalin for histology. This procedure will allow LV, and RV weights to be determined and hypertrophy to be assessed.

[3] = PD 166793 plasma levels in SHHF rats (Example 1); format: in vivo; conditions: rat, po, 5 mg/kg/day PD 166793 in diet, 8 months
Description: Drug Administration: […] Food consumption was monitored twice weekly. Terminal Cardiovascular Test: Rats were anesthetized with isoflurane for terminal testing. Isoflurane was administered using a mask until the rats are anesthetized and a tracheotomy performed. The rats were respired using a ventilator ([…] Engineering Corp., Hialeah, Fla.). Cardiac function was assessed in closed-chest rats by measuring LV dP/dt, LV end-diastolic pressure (EDP), heart rate, and aortic blood pressure using a Millar pressure transducer inserted through the right carotid. Physiological data was recorded at 500 Hz, and a logging rate of 5 seconds was used to average data. […] Baseline measurements were made when the rats reached a stable plateau of anesthesia. […] Approximately 4 to 5 mL of blood were withdrawn in ice-cold syringes and then transferred to ice-cold EDTA tubes. […] The heart was arrested with KCl and rapidly excised. A glass cannula was inserted through the aorta into the LV chamber, and secured into place by a ligature around the atrio-ventricular groove. Cardiac dilation was measured by generating left ventricular pressure volume (PV) curves. […] The PV curves were recorded on a Po-Ne-Mah digital data acquisition system. […] This procedure will allow LV, and RV weights to be determined and hypertrophy to be assessed.

[4] = tested on: spontaneously hypertensive heart failure (SHHF) rats; experiment: previous 4-month experiment in SHHF rats; format: in vivo, rat; conditions: for cardiac dilation, in words / left ventricular (LV) systolic function, in words: 4 months
in vivo = conditions: pig, po, 2 mg/kg/day
MMP-3 (stromelysin) = MMP-3 (stromelysin) (Homo sapiens, UniProt P08254); experiment: thiopeptolide substrate hydrolysis assay, MMP-3; format: biochemical; conditions: pH 6.0, 22° C., read-out: IC50 MMP3
Description: The assays measure the amount by which a test compound reduces the hydrolysis of a thiopeptolide substrate caused by a matrix metalloproteinase enzyme.
Thiopeptolide substrates show virtually no decomposition or hydrolysis in the absence of a matrix metalloproteinase enzyme. A typical thiopeptolide substrate commonly utilized for assays is Ac-Pro-Leu-Gly-thioester-Leu-Leu-Gly-O Et. […] Assays are carried out with and without matrix metalloproteinase inhibitor compounds, and the amount of hydrolysis is compared for a determination of inhibitory activity of the test compounds.

fibroblast = conditions: tissue culture cells; cited from earlier work
[5] = relative to untreated rapid-paced pigs, FIG. 5

Sequence of MMP-3 (stromelysin) (P08254 100-272 limits assumed): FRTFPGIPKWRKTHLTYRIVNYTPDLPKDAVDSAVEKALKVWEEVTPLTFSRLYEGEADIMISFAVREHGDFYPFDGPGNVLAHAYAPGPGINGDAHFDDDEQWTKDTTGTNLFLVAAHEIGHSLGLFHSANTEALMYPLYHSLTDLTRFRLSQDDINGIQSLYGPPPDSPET

SMILES	LV End-Systolic Pressure [1] [mmHg]	Pulmonary Vascular Resistance [1] [dynes*s*cm^-5]	Systemic Vascular Resistance [1] [dynes*s*cm^-5]	Plasma Norepinephrine [1] [pg/mL]	LV end-diastolic dimension (dilation), in words [1]	LV wall stress, in words [1]	LVEDP (left ventricular end-diastolic pressure) [2] [mmHg]	LVESP (left ventricular end-systolic pressure) [2] [mmHg]	LVV-OP [2] [µL]	cardiac dilation, in words [4]	left ventricular (LV) systolic function, in words [4]	also measured
CCC(=O)O[C@@H](O[P@](=O)(CCCCc1ccccc1)CC(=O)N1C[C@H](C2CCCCC2)C[C@H]1C(=O)O)C(C)C [fosinopril]	100	266	1529	618	reduce wall stress and end diastolic dimension	reduce wall stress						systolic function, slope of circumferential velocity over end-systolic stress relation (Vcfc-ES Stress), in words ([1]; compared to nontreated rapid-paced animals, FIG. 4): significantly improved systolic function; LV end-diastolic dimension (dilation), in words ([1]; listed as Fosinopril): more effective than the PD 166793 in reducing dilation; systolic function measured as preload recruitable stroke work (PRSW), in words ([1]; rapid-paced pigs, FIG. 3): improved systolic function to the greatest extent
CC(C)C(NS(=O)(=O)c1ccc(-c2ccc(Br)cc2)cc1)C(=O)O (stereo not shown) [PD 166793, 2-(4'-bromobiphenyl-4-sulfonylamino)-3-methyl-butyric acid]	110	417	2784	736	reduce wall stress and end diastolic dimension	reduce wall stress	18 ± 3	188 ± 8	820 ± 58	significantly reducing cardiac dilation	maintaining left ventricular (LV) systolic function	concentration at 5840 h [3]: 50100 ± 7100 ng/mL; LV chamber stiffness, in words [1, 5]: increased both LV chamber stiffness and myocardial stiffness; myocardial stiffness, in words [1, 5]: increased both LV chamber stiffness and myocardial stiffness; mechanism (vasodilator, anti-hypertrophic), in words [4]: neither a vasodilator, nor an anti-hypertrophic; concentration at 1 h (in vivo): 10800 ± 1200 ng/mL
CCOC(=O)[C@H](CCc1ccccc1)N[C@@H](C)C(=O)N1Cc2ccccc2C[C@H]1C(=O)O [quinapril]							17 ± 4	190 ± 7	603 ± 99	A similar effect was also observed	A similar effect was also observed	LV weight, in words ([2]; compared to the vehicle control group): reduced
CC(C)CC(CC(=O)NO)C(=O)N[C@@H](CC(C)C)C(=O)N[C@@H](Cc1ccccc1)C(N)=O (stereo partly shown) [U24522]												IC50 (MMP-3 (stromelysin)): 20 nM
NNC(=O)c1ccccc1 [Benzoic hydrazide, benzoic hydrazide]												collagen synthesis, in words (fibroblast): suppress collagen synthesis; fibroblast proliferation, in words (fibroblast): suppress collagen synthesis and fibroblast proliferation
